The values below come from patent US20220313698A1, “MODULATORS OF CYSTIC FIBROSIS TRANSMEMBRANE CONDUCTANCE REGULATOR” (Vertex Pharmaceuticals Incorporated, priority 2019, published 2022).

The conditions of series [1]: snar bond, 15-membered ring.
Series [2] concerns the target T1, CFTR-mediated chloride transport (Homo sapiens, UniProt P13569). Description: Corrector Assay A - membrane potential dye assay (enteroid cells). Conditions: for Corrector Assay A % activity: % of chloride transport of triple combination control (1 μM (14S)-dispiro macrocycle + 3 μM tezacaftor + 300 nM ivacaftor); for EC50: read-out: Corrector Assay A EC50, human intestinal enteroid cells, 18-24 h incubation, acute 10 μM forskolin + 300 nM ivacaftor.

For series [3], the target named is T1, CFTR-mediated chloride transport. The series is described as follows: Corrector Assay B - membrane potential dye assay (enteroid cells).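 For all read-outs here: methyl oxonol membrane potential fluorescence followed over 15 min after switching to chloride-free buffer with forskolin, 100 µM IBMX and ivacaftor, in presence of CaCC blockers.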 Conditions: for Corrector Assay B % activity: % of chloride transport of triple combination control (3 μM Compound A + 3 μM tezacaftor + 300 nM ivacaftor); for EC50: read-out: Corrector Assay B EC50, human intestinal enteroid cells, 18-24 h incubation, acute 10 μM forskolin + 300 nM ivacaftor.

Where two headings read alike, the source gives them in different places.

In series [1] (from CC(C)(C)OC(=O)N1C[C@@H](CCC(CCC(C2CC2)C2CC2)Nc2cccc(S(=O)(=O)NC(=O)c3ccc(C(C)(C)C)nc3F)n2)CC1(C)C, K2CO3, DMSO, 77.1 mM, 140.0 °C, 2 steps), `CC(C)(C)c1ccc2c(n1)N1C[C@@H](CCC(CCC(C3CC3)C3CC3)Nc3cccc(n3)S(=O)(=O)NC2=O)CC1(C)C` (some centres unmarked) displayed a ring closure, yield after HPLC of 46%.

As to `CC(C)(C)c1ccc2c(n1)N1CC(CCN(c3ccccc3)C(=O)c3cccc(c3)S(=O)(=O)NC2=O)CC1(C)C` (centres unmarked), in series [1] (from CC1(C)CC(CCN(C(=O)c2cccc(S(=O)(=O)NC(=O)c3ccc(C(C)(C)C)nc3Cl)c2)c2ccccc2)CN1, K2CO3, then CsF/3A MS, NMP, 24.6 mM, 180.0 °C, 88.0 h), the ring closure, yield after HPLC was determined as 29%.

`CCCC1(C)CC2CCCNc3cccc(n3)S(=O)(=O)NC(=O)c3ccc(-n4ccc(OCCC5(C(F)(F)F)CC5)n4)nc3N1C2` (centres unmarked): the ring closure, yield after HPLC in series [1] (from CCCC1(C)CC(CCCNc2cccc(S(=O)(=O)NC(=O)c3ccc(-n4ccc(OCCC5(C(F)(F)F)CC5)n4)nc3Cl)n2)CN1, K2CO3, NMP, 20.9 mM, 150.0 °C, 16.0 h) worked out at 28%.

In series [1] (from CC1(C)C[C@H](CCCNc2cccc(S(=O)(=O)NC(=O)c3cc(Cc4ccccc4)c(F)nc3F)n2)CN1, K2CO3, NMP, 71.8 mM, 160.0 °C, 21.5 h, 2 steps), `CC1(C)C[C@@H]2CCCNc3cccc(n3)S(=O)(=O)NC(=O)c3cc(Cc4ccccc4)c(F)nc3N1C2` had a ring closure, yield after HPLC of 33%.

The molecule `CC(C)C1CC[C@@H]2CN(c3nc(-n4ccc(OCCC5C6(CC6)C56CC6)n4)ccc3C(=O)NS(=O)(=O)c3cccc(n3)N1)C(C)(C)C2` (single isomer, unassigned; diastereomer 1) showed a ring closure, yield after HPLC in series [1] (from CC(C)C(CC[C@H]1CNC(C)(C)C1)Nc1cccc(S(=O)(=O)NC(=O)c2ccc(-n3ccc(OCCC4C5(CC5)C45CC5)n3)nc2Cl)n1, K2CO3, NMP, 20.9 mM, 165.0 °C, 16.0 h) of 68%.

Regarding `CC(C)C1CC[C@@H]2CN(c3nc(-n4ccc(OCCC5C6(CC6)C56CC6)n4)ccc3C(=O)NS(=O)(=O)c3cccc(n3)N1)C(C)(C)C2` (single isomer, unassigned; diastereomer 2), the ring closure, yield after HPLC in series [1] (from CC(C)C(CC[C@H]1CNC(C)(C)C1)Nc1cccc(S(=O)(=O)NC(=O)c2ccc(-n3ccc(OCCC4C5(CC5)C45CC5)n3)nc2Cl)n1, K2CO3, NMP, 23.0 mM, 165.0 °C, 16.0 h) is 60%.

Regarding `CC1(C)C[C@@H]2CCC(c3ccccc3)Nc3cccc(n3)S(=O)(=O)NC(=O)c3ccc(-n4ccc(OCCC5C6(CC6)C56CC6)n4)nc3N1C2` (single isomer, unassigned) [Compound 363], in series [2], the “Corrector Assay A % activity” value was “+++ (+++ is >60%)” and the EC50 is < 1000 nM. Moreover, in series [3], the “Corrector Assay B % activity” value is listed as “+++ (+++ is >60%)” and the half-maximal effective concentration (EC50) was < 1000 nM.

Molecule `CC(C)(C)c1ccc2c(n1)N1C[C@@H](CCC(c3ccc(Cl)cn3)Nc3cccc(n3)S(=O)(=O)NC2=O)CC1(C)C` (single isomer, unassigned; diastereomer 1) yielded a ring closure, yield after HPLC in series [1] (from CC1(C)C[C@H](CCC(Nc2cccc(S(=O)(=O)NC(=O)c3ccc(C(C)(C)C)nc3F)n2)c2ccc(Cl)cn2)CN1, K2CO3/3A MS, NMP, 78.4 mM, 150.0 °C, 4.0 h, 2 steps) of 39%.

Take `CC(C)(C)c1ccc2c(n1)N1C[C@@H](CCC(c3ccccn3)Nc3cccc(n3)S(=O)(=O)NC2=O)CC1(C)C` (single isomer, unassigned) [Compound 292]: in series [2], the “Corrector Assay A % activity” value is “+++ (+++ is >60%)” and the EC50 was < 1000 nM. In series [3], the “Corrector Assay B % activity” value was “+++ (+++ is >60%)” and the concentration giving a half-maximal response (EC50) was < 1000 nM.

Molecule `CC(C)(C)c1ccc2c(n1)N1C[C@@H](CCC(C3=CCN(C(=O)OCc4ccccc4)CC3)Nc3cccc(n3)S(=O)(=O)NC2=O)CC1(C)C` (some centres unmarked) came in with a ring closure, yield after HPLC in series [1] (from CC1(C)C[C@H](CCC(Nc2cccc(S(=O)(=O)NC(=O)c3ccc(C(C)(C)C)nc3F)n2)C2=CCN(C(=O)OCc3ccccc3)CC2)CN1, K2CO3/3A MS, NMP, 29.7 mM, 155.0 °C, 18.0 h, 2 steps) of 89%.

As to `CC1(C)CC2CN1c1nc(-n3ccc(OCCC4(C(F)(F)F)CC4)n3)ccc1C(=O)NS(=O)(=O)c1cccc(n1)NCCC2c1ccccc1` (single isomer, unassigned) [Compound 393, 12,12-dimethyl-15-phenyl-8-(3-{2-[1-(trifluoromethyl)cyclopropyl]ethoxy}-1H-pyrazol-1-yl)-2λ^6-thia-3,9,11,18,23-pentaazatetracyclo[17.3.1.111,14.05,10]tetracosa-1(22),5,7,9,19(23),20-hexaene-2,2,4-trione], in series [2], the “Corrector Assay A % activity” value is reported as “+++ (+++ is >60%)” and the 50% effective concentration (EC50) was < 1000 nM. Moreover, the “Corrector Assay B % activity” value in series [3] is given as “+++ (+++ is >60%)”.

Turning to `CC1(C)C[C@@H]2CCC(c3ccccc3)Nc3cccc(n3)S(=O)(=O)NC(=O)c3ccc(-n4ccc(OCCC5C6(CC6)C56CC6)n4)nc3N1C2` (single isomer, unassigned) [Compound 364], in series [2], the “Corrector Assay A % activity” value is “+++ (+++ is >60%)” and the concentration giving a half-maximal response (EC50) was < 1000 nM. The “Corrector Assay B % activity” value in series [3] is recorded as “+++ (+++ is >60%)”.

For `CC1(C)CC2CCC(c3ccccc3)Nc3cccc(n3)S(=O)(=O)NC(=O)c3ccc(-n4ccc(OCCC5(C(F)(F)F)CC5)n4)nc3N1C2` (single isomer, unassigned) [Compound 387, 12,12-Dimethyl-17-phenyl-8-(3-{2-[1-(trifluoromethyl)cyclopropyl]ethoxy}-1H-pyrazol-1-yl)-2λ^6-thia-3,9,11,18,23-pentaazatetracyclo[17.3.1.111,14.05,10]tetracosa-1(22),5,7,9,19(23),20-hexaene-2,2,4-trione], in series [2], the “Corrector Assay A % activity” value is given as “+++ (+++ is >60%)” and the EC50 is < 1000 nM. For the same molecule, in series [3], the “Corrector Assay B % activity” value was “+++ (+++ is >60%)”.

In the case of `CC(C)(C)c1ccc2c(n1)N1C[C@@H](CC[C@@H](c3ccccc3)Nc3cccc(n3)S(=O)(=O)NC2=O)CC1(C)C` (single isomer, unassigned) [Compound 295], in series [2], the “Corrector Assay A % activity” value was “++ (++ is 30-60%)” and the EC50 was < 1000 nM. Also, in series [3], the “Corrector Assay B % activity” value is “+++ (+++ is >60%)” and the EC50 is < 1000 nM.

Take `CC1(C)CC2CC(c3ccccc3)CNc3cccc(n3)S(=O)(=O)NC(=O)c3ccc(-n4ccc(OCCC5(C(F)(F)F)CC5)n4)nc3N1C2` (single isomer, unassigned) [Compound 391, 12,12-dimethyl-16-phenyl-8-(3-{2-[1-(trifluoromethyl)cyclopropyl]ethoxy}-1H-pyrazol-1-yl)-2λ^6-thia-3,9,11,18,23-pentaazatetracyclo[17.3.1.111,14.05,10]tetracosa-1(22),5,7,9,19(23),20-hexaene-2,2,4-trione]: in series [2], the “Corrector Assay A % activity” value is recorded as “+++ (+++ is >60%)” and the EC50 is < 1000 nM. The “Corrector Assay B % activity” value in series [3] is reported as “+++ (+++ is >60%)”.

`CC1(C)CC2CN1c1nc(-n3ccc(OCCC4(C(F)(F)F)CC4)n3)ccc1C(=O)NS(=O)(=O)c1cccc(n1)NCCC2c1ccccc1` (single isomer, unassigned) [Compound 385, 12,12-dimethyl-15-phenyl-8-(3-{2-[1-(trifluoromethyl)cyclopropyl]ethoxy}-1H-pyrazol-1-yl)-2λ^6-thia-3,9,11,18,23-pentaazatetracyclo[17.3.1.111,14.05,10]tetracosa-1(22),5,7,9,19(23),20-hexaene-2,2,4-trione]: in series [2], the “Corrector Assay A % activity” value is recorded as “++ (++ is 30-60%)” and the EC50 is < 1000 nM. For the same molecule, in series [3], the “Corrector Assay B % activity” value was “++ (++ is 30-60%)” and the EC50 was < 1000 nM.

As to `CC1(C)C[C@@H]2CCC(c3ccccn3)Nc3cccc(n3)S(=O)(=O)NC(=O)c3ccc(-n4ccc(OCCC5(C(F)(F)F)CC5)n4)nc3N1C2` (single isomer, unassigned) [Compound 361], in series [2], the “Corrector Assay A % activity” value is “+++ (+++ is >60%)” and the 50% effective concentration (EC50) is < 1000 nM. In addition, in series [3], the “Corrector Assay B % activity” value is reported as “+++ (+++ is >60%)” and the 50% effective concentration (EC50) was < 1000 nM.

With `CCCC1(C)CC2CCCNc3cccc(n3)S(=O)(=O)NC(=O)c3ccc(-n4ccc(OCCC5(C(F)(F)F)CC5)n4)nc3N1C2` (single isomer, unassigned) [Compound 367, 12-methyl-12-propyl-8-(3-{2-[1-(trifluoromethyl)cyclopropyl]ethoxy}-1H-pyrazol-1-yl)-2λ^6-thia-3,9,11,18,23-pentaazatetracyclo[17.3.1.111,14.05,10]tetracosa-1(22),5,7,9,19(23),20-hexaene-2,2,4-trione], in series [2], the “Corrector Assay A % activity” value is “+++ (+++ is >60%)” and the EC50 was < 1000 nM. Also, in series [3], the “Corrector Assay B % activity” value is “++ (++ is 30-60%)” and the EC50 is < 1000 nM.

Regarding `CC1(C)C[C@@H]2CCC(c3ccccn3)Nc3cccc(n3)S(=O)(=O)NC(=O)c3ccc(-n4ccc(OCCC5(C(F)(F)F)CC5)n4)nc3N1C2` (single isomer, unassigned) [Compound 362], in series [2], the “Corrector Assay A % activity” value was “+++ (+++ is >60%)” and the EC50 was < 1000 nM. The “Corrector Assay B % activity” value in series [3] is given as “+++ (+++ is >60%)”.

Regarding `CC1(C)CC2CCC(c3ccccc3)Nc3cccc(n3)S(=O)(=O)NC(=O)c3ccc(-n4ccc(OCCC5(C(F)(F)F)CC5)n4)nc3N1C2` (single isomer, unassigned) [Compound 384, 12,12-Dimethyl-17-phenyl-8-(3-{2-[1-(trifluoromethyl)cyclopropyl]ethoxy}-1H-pyrazol-1-yl)-2λ^6-thia-3,9,11,18,23-pentaazatetracyclo[17.3.1.111,14.05,10]tetracosa-1(22),5,7,9,19(23),20-hexaene-2,2,4-trione], in series [2], the “Corrector Assay A % activity” value was “+ (+ is <30%)” and the concentration for a half-maximal effect (EC50) was < 1000 nM. The “Corrector Assay B % activity” value in series [3] is recorded as “++ (++ is 30-60%)”.
